Measured values from US9765118B2, “Pharmaceutical composition for cancer prevention and treatment containing peptide originated from C12orf59 protein as an active ingredient” (KOREA RESEARCH INSTITUTE OF BIOSCIENCE AND BIOTECHNOLOGY, priority 2010, dated 2017).

Tests used:
[1] = system: SW480sub cells; experiment: Transwell matrigel invasion assay with peptide-treated SW480sub cells; assay type: cell-based, human; details: for invasion reduced compared to vehicle control: peptide 50 μM; for colorectal cancer cell invasion reduced by / inhibitory effects on invasion: peptide 100 μg/ml, 48 hours
Experimental: SW480sub was subpopulation of SW480 having high in vitro invasion and in vivo metastasis ability. The effect of each peptide on colorectal cancer cell invasion was analyzed using the said SW480sub. SW480sub cells were mixed with each peptide, followed by pre-incubation for 30 minutes.
(§1) Particularly, the porous membrane of 24-well transwell plate (8 μm pore size; Costar, USA) was coated with 100 μl of matrigel (BD Biosciences, USA) diluted in serum free medium at the concentration of […], which stood at room temperature for 1 hour for fixing. The lower part of the transwell plate was coated with 100 μl of collagen type I (Sigma) at the concentration of […]. The said collagen type I was used as a chemoattractant. 1×10^4 cells resuspended in serum free medium were distributed in the upper chamber of the said 24-well transwell plate, followed by culture at 37° C. with 5% CO2 for 48 hours, during which the cells were induced to migrate from the upper chamber to the lower chamber. The non-migrated cells were eliminated from the surface of the upper chamber. […] The excessive crystal violet solution was washed off with distilled water. The selected area (×100) was photographed. The number of the cells migrated was counted from 5 different selected areas. Then, mean value and standard error were obtained.

[2] = system: colorectal cancer cells; experiment: Cellular survival rate of colorectal cancer cells by absorbance (Experimental Example 4); assay type: cell-based; details: as in Example <3-2>
Experimental: (§2) Particularly, 100 μl of poly-HEMA (Sigma) at the concentration of 12 mg/ml was loaded in 96-well plate, which stood in clean bench for 1 day, followed by drying. On the next day, the plate was coated with Poly-HEMA once again. Cells were distributed in the poly-HEMA coated plate by 100 μl/well (1×10^4 cells/well). At that time, serum-free medium was used. 6 days later, 10 μl of CCK-8 reagent (Dojindo cat. CK04-13) was added to each well, followed by reaction for 3 hours. Then, OD450 was measured.
In particular, a cellular survival rate was measured using absorbance in the same manner as in Example <3-2>.

[3] = system: SW480 cells; experiment: Transwell invasion assay with peptide-treated SW480 cells; assay type: cell-based, human; details: for invasion of cells reduced by: FIGS. 18 and 19, concentration not given; for invasion of colorectal cancer cells compared to the control: 50 μM, control DMSO 0.25%
Experimental: as §1
SW480 colorectal cancer cells were treated with peptides originated from C12orf59, and effects of the peptids on invasion of the cells were analyzed.

[4] = system: SW480 cells; experiment: Cell survivability under anchorage independent condition (polyHEMA, CCK-8, OD450) with peptides; assay type: cell-based, human; details: 6 days, serum-free
Experimental: 6 days later, cell survivability was measured by colorimetric technique under the anchorage independent condition.
as §2

[5] = system: C8161 (human melanoma) cell line; experiment: Transwell invasion assay with C8161 cells in the presence of the peptide; assay type: cell-based; details: 24 h
Experimental: Specifically, C8161 (human melanoma) cell line was cultured in DMEM containing 10% FBS, penicillin-streptomycin, L-glutamine, sodium pyruvate and glucose. C8161 cells (1×10^4) in the presence of the peptide were plated in serum-free medium on 24-well Transwell inserts (8 μm pore size; Costar, USA) coated with 25 μg of […] (BD Biosciences, USA). The underside of the insert was coated with 100 μl of collagen type I (Sigma) at the concentration of 5 μg/ml. […] The number of cells that had invaded was counted in five representative fields per insert. Then, mean value and standard deviation were obtained.

| Substance | invasion reduced compared to vehicle control [1] [%] | survival of colorectal cancer cells [2] | invasion of cells reduced by [3] [%] | invasion of colorectal cancer cells compared to the control [3] | other results |
| --- | --- | --- | --- | --- | --- |
| EENCGNPEHCLT (A_C-term1) | 48 | inhibitory effects on the survival of colorectal cancer cells in a concentration-dependent manner | 48 | – | colorectal cancer cell invasion reduced by / inhibitory effects on invasion [1]: about 92% |
| CLTTDWVH (A/B common) | – | – | – | effects similar to those of A_C-term2 and B_C-term2 | – |
| PCCISS (B_Cen2) | – | – | – | superior inhibitory effects | – |
| EENCGNP (A_C-term2) | 46 | – | 38 | inhibited the invasion | colorectal cancer cell invasion reduced by / inhibitory effects on invasion [1]: about 99% |
| EENCGNPEHCLTTDWVH (A_intact) [17 amino acid peptide from the extracellular domain of C12orf59 isoform 1] | 40 | – | – | – | cell survivability reduced by [4]: 82%; C8161 invasion reduced by ([5]; 30 μg/ml): 10%; C8161 invasion reduced by ([5]; 100 μg/ml): 45% |
| SWRPQPCCIS (B_C-term2) | 50 | – | 39 | inhibited the invasion | – |
| PCCISSCCLTTDWVH (B_N-term) | – | inhibitory effects on the survival of colorectal cancer cells in a concentration-dependent manner | – | – | – |
| NPEHCLTTDWVH (A_N-term) | – | inhibitory effects on the survival of colorectal cancer cells in a concentration-dependent manner | 39 | – | – |
| SWRPQPCCISSCCLT (B_C-term1) | – | inhibitory effects on the survival of colorectal cancer cells in a concentration-dependent manner | – | – | – |
| NPEHCLT (A_Cen) | – | – | 49 | – | – |
